From patent US12226410B2, “Methods for enhancing cellular clearance of pathological molecules via activation of the cellular protein ykt6” (NORTHWESTERN UNIVERSITY, priority 2019, dated 2025)

Test system: ykt6
Assay: FTI treatment of wild-type mice: ykt6 membrane distribution and SNARE complexes in cortex
Format: in vivo
Conditions: daily i.p. 0.9 mg/kg, 14 days
Experimental: FIGS. 15A, 15B, 15C, 15D, 15E, and 15F. FTI treatment of wild-type mice enhances ykt6 SNARE complexes, lysosomal activity, and reduces a-syn. 15A) Wild-type mice (C57Bl/6) were i.p. injected daily with FTI for 14 days at 0.9 mg/kg and compared to vehicle injected mice. Extracts from the cortex were analyzed for cytosolic (cyt) and membrane (mem) distribution of ykt6 (veh, n=5; FTI, n=6). 15B) Representative gel filtration/western blot analysis of cortical extracts of veh or FTI injected wild-type mice. Inputs are shown on the left. NSE indicates equal column loading. 15C) Quantification of ykt6 and STX5 complexes (ca. 120A) from gel filtration analysis in C (n=4 mice). Fraction 1 corresponds to complexes at 120A, while fractions 7-9 correspond to ykt6 monomers at 22-14 A. 15D) The levels of post ER (endo H resistant) GCase were analyzed by western blot and post ER/ER ratios were quantified from the cortex of FTI treated mice (veh, n=5; FTI, n=6). 15E) GCase activity was assessed in cortical lysates and normalized to total protein (veh, n=4; FTI, n=6). 15F) a-Syn levels were quantified from cytosolic or membrane isolated fractions from the cortex of wild-type FTI treated mice (veh, n=4; FTI, n=6). For all quantifications, values are the mean+/−SEM, *p<0.05.
Separation of lysates into cytosol and membrane fractions. Cell cultures from either a 10 cm dish (SH-SY5Y) or 6 well (iPSn) were scraped in cold PBS and pelleted by centrifugation at 400×g, 5 min, 4° C. The supernatant was discarded and cell pellets were homogenized in 200-400 ul of cold PBS containing protease inhibitor cocktail mix (1 mM phenylmethanesulfonyl fluoride (PMSF), 50 mM NaF, 2 mM Na orthovanadate, and a protease inhibitor cocktail (Roche diagnostics, http://www.roche.com, #11-836-170-001)) using a Teflon homogenizer in a conical glass vessel for 20-40 times, using a motor driven spindle at 4000 rpm (GlasCol, https://glascol.com/homogenizers). […] Fractions were then analyzed by western blot analysis as described below. The samples were not analyzed in a blinded manner. […]

SMILES: C#Cc1cccc(-c2cc(=O)n(C)c3ccc([C@](O)(c4ccc(Cl)cc4)c4cncn4C)cc23)c1 [LNK-754]
- levels of membrane associated ykt6 and STX5: increase the levels of membrane associated ykt6 and STX5
- sec22b: no change
- ykt6 distribution by SEC (monomers vs complexes): shifted its distribution from monomers into high molecular weight complexes
